According to PubChem BioAssay AID1845208 (Molecular Pharmacology Branch, DTP, NCI, 2023):

Tested on: NCI-H196 SCLC complex tumor spheroid viability
Assay: Anticancer human tumor NCI-H196 cell line growth inhibition;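 note: spheroids exposed to compounds for 7 days before readout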;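 for viability, T/C: 100% = DMSO vehicle control wells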
Settings: for IC50: curve of first compound; for viability, T/C: stronger effect = lower value
In short: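 Complex tumor spheroids combined malignant cells with endothelial cells and mesenchymal stem cells. DNA-damaging drugs and DNA repair inhibitors were tested alone and in combination, at half-log dilutions down from clinical Cmax (top 10 microM if Cmax unknown), 0.25% DMSO final.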

[1] = second compound 1 µM, first compound 0.0316 µM
[2] = second compound 1 µM, first compound 0.1 µM
[3] = second compound 1 µM, first compound 0.316 µM
[4] = second compound 1 µM, first compound 1 µM
[5] = second compound 1 µM, first compound 3.16 µM
[6] = second compound 1 µM, first compound 10 µM
[7] = second compound 3.16 µM, first compound 0.0316 µM
[8] = second compound 3.16 µM, first compound 0.1 µM
[9] = second compound 3.16 µM, first compound 0.316 µM
[10] = second compound 3.16 µM, first compound 1 µM
[11] = second compound 3.16 µM, first compound 3.16 µM
[12] = second compound 3.16 µM, first compound 10 µM
[13] = second compound 10 µM, first compound 0.0316 µM
[14] = second compound 10 µM, first compound 0.1 µM
[15] = second compound 10 µM, first compound 0.316 µM
[16] = second compound 10 µM, first compound 1 µM
[17] = second compound 10 µM, first compound 3.16 µM
[18] = second compound 10 µM, first compound 10 µM
[19] = second compound 31.6 µM, first compound 0.0316 µM
[20] = second compound 31.6 µM, first compound 0.1 µM
[21] = second compound 31.6 µM, first compound 0.316 µM
[22] = second compound 31.6 µM, first compound 1 µM
[23] = second compound 31.6 µM, first compound 3.16 µM
[24] = second compound 31.6 µM, first compound 10 µM
[25] = second compound 100 µM, first compound 0.0316 µM
[26] = second compound 100 µM, first compound 0.1 µM
[27] = second compound 100 µM, first compound 0.316 µM
[28] = second compound 100 µM, first compound 1 µM
[29] = second compound 100 µM, first compound 3.16 µM
[30] = second compound 100 µM, first compound 10 µM

## CC1COCCN1c1cc(-c2ccnn2C)c2ccnc(-c3ccn[nH]3)c2n1 (stereo not given) + Cn1nnc2c(C(N)=O)ncn2c1=O
Second compound 1 µM
  IC50: 2.82 µM
Second compound 3.16 µM
  IC50: 2.15 µM
Second compound 10 µM
  IC50: 7.34 µM
Second compound 31.6 µM
  IC50: 4.44 µM
Second compound 100 µM
  IC50: 3.49 µM
[1]
  viability, T/C: 84.8%
[2]
  viability, T/C: 77.5%
[3]
  viability, T/C: 61.2%
[4]
  viability, T/C: 59.5%
[5]
  viability, T/C: 48.1%
[6]
  viability, T/C: 44.4%
[7]
  viability, T/C: 92.6%
[8]
  viability, T/C: 77.7%
[9]
  viability, T/C: 62.2%
[10]
  viability, T/C: 56.7%
[11]
  viability, T/C: 44.1%
[12]
  viability, T/C: 47.3%
[13]
  viability, T/C: 98.3%
[14]
  viability, T/C: 85.4%
[15]
  viability, T/C: 75.7%
[16]
  viability, T/C: 58.2%
[17]
  viability, T/C: 54%
[18]
  viability, T/C: 48.8%
[19]
  viability, T/C: 95.2%
[20]
  viability, T/C: 85.5%
[21]
  viability, T/C: 71.4%
[22]
  viability, T/C: 59.6%
[23]
  viability, T/C: 51.6%
[24]
  viability, T/C: 46.6%
[25]
  viability, T/C: 90.3%
[26]
  viability, T/C: 76.8%
[27]
  viability, T/C: 69.9%
[28]
  viability, T/C: 57.9%
[29]
  viability, T/C: 49.7%
[30]
  viability, T/C: 44.8%

## COc1cc(C)[nH]c(=O)c1CN1CCc2c(Cl)cc(C(OC)C3COC3)c(Cl)c2C1=O (stereo not given) + Cn1nnc2c(C(N)=O)ncn2c1=O
Second compound 1 µM
  IC50: > 10 µM
Second compound 3.16 µM
  IC50: > 10 µM
Second compound 10 µM
  IC50: > 10 µM
Second compound 31.6 µM
  IC50: > 10 µM
Second compound 100 µM
  IC50: > 10 µM
[1]
  viability, T/C: 91.4%
[2]
  viability, T/C: 103%
[3]
  viability, T/C: 89.9%
[4]
  viability, T/C: 86.8%
[5]
  viability, T/C: 94%
[6]
  viability, T/C: 92%
[7]
  viability, T/C: 95.2%
[8]
  viability, T/C: 98.8%
[9]
  viability, T/C: 99.2%
[10]
  viability, T/C: 105%
[11]
  viability, T/C: 90.9%
[12]
  viability, T/C: 97.3%
[13]
  viability, T/C: 106%
[14]
  viability, T/C: 104%
[15]
  viability, T/C: 99.7%
[16]
  viability, T/C: 103%
[17]
  viability, T/C: 98.2%
[18]
  viability, T/C: 102%
[19]
  viability, T/C: 104%
[20]
  viability, T/C: 107%
[21]
  viability, T/C: 101%
[22]
  viability, T/C: 106%
[23]
  viability, T/C: 99%
[24]
  viability, T/C: 105%
[25]
  viability, T/C: 102%
[26]
  viability, T/C: 98.9%
[27]
  viability, T/C: 99.3%
[28]
  viability, T/C: 87.1%
[29]
  viability, T/C: 96.4%
[30]
  viability, T/C: 94.7%

## Cc1cc(C)c(CNC(=O)c2cc(-c3ccc(CN4CCOCC4)cc3)cc3c2cnn3C2CCCC2)c(=O)[nH]1 + Cn1nnc2c(C(N)=O)ncn2c1=O
Second compound 1 µM
  IC50: > 10 µM
Second compound 3.16 µM
  IC50: > 10 µM
Second compound 10 µM
  IC50: > 10 µM
Second compound 31.6 µM
  IC50: > 10 µM
Second compound 100 µM
  IC50: > 10 µM
[1]
  viability, T/C: 91%
[2]
  viability, T/C: 102%
[3]
  viability, T/C: 92.1%
[4]
  viability, T/C: 92.8%
[5]
  viability, T/C: 90.6%
[6]
  viability, T/C: 105%
[7]
  viability, T/C: 93.6%
[8]
  viability, T/C: 94.5%
[9]
  viability, T/C: 101%
[10]
  viability, T/C: 104%
[11]
  viability, T/C: 100%
[12]
  viability, T/C: 101%
[13]
  viability, T/C: 99.3%
[14]
  viability, T/C: 97.8%
[15]
  viability, T/C: 98.8%
[16]
  viability, T/C: 93.9%
[17]
  viability, T/C: 94.9%
[18]
  viability, T/C: 96%
[19]
  viability, T/C: 98.5%
[20]
  viability, T/C: 102%
[21]
  viability, T/C: 108%
[22]
  viability, T/C: 110%
[23]
  viability, T/C: 104%
[24]
  viability, T/C: 94.7%
[25]
  viability, T/C: 94.5%
[26]
  viability, T/C: 98.5%
[27]
  viability, T/C: 98.9%
[28]
  viability, T/C: 99%
[29]
  viability, T/C: 99.8%
[30]
  viability, T/C: 96%

## [2H]c1nc(C)nc([2H])c1-c1cc(NC[C@@H](C)c2cccc3c(C(=O)NC)ccnc23)ncn1 + Cn1nnc2c(C(N)=O)ncn2c1=O
Second compound 1 µM
  IC50: > 10 µM
Second compound 3.16 µM
  IC50: > 10 µM
Second compound 10 µM
  IC50: > 10 µM
Second compound 31.6 µM
  IC50: > 10 µM
Second compound 100 µM
  IC50: > 10 µM
[1]
  viability, T/C: 94.1%
[2]
  viability, T/C: 96.6%
[3]
  viability, T/C: 97.9%
[4]
  viability, T/C: 99.5%
[5]
  viability, T/C: 105%
[6]
  viability, T/C: 91.2%
[7]
  viability, T/C: 100%
[8]
  viability, T/C: 104%
[9]
  viability, T/C: 98.5%
[10]
  viability, T/C: 97.5%
[11]
  viability, T/C: 90.8%
[12]
  viability, T/C: 96.9%
[13]
  viability, T/C: 110%
[14]
  viability, T/C: 99.8%
[15]
  viability, T/C: 97.7%
[16]
  viability, T/C: 101%
[17]
  viability, T/C: 101%
[18]
  viability, T/C: 107%
[19]
  viability, T/C: 109%
[20]
  viability, T/C: 104%
[21]
  viability, T/C: 108%
[22]
  viability, T/C: 112%
[23]
  viability, T/C: 99.8%
[24]
  viability, T/C: 118%
[25]
  viability, T/C: 101%
[26]
  viability, T/C: 102%
[27]
  viability, T/C: 99.3%
[28]
  viability, T/C: 102%
[29]
  viability, T/C: 103%
[30]
  viability, T/C: 104%
